Data: patent publication US8367873B2, “Phenyl-substituted bicyclooctane-1,3-dione derivatives” (Bayer Cropscience AG, priority 2008, dated 2013)

What was measured:
Assay type in all cases: in vivo
[1] = test system: monocotylidonous and dicotylidonous weed and crop plants; assay: Herbicidal post-emergence action (other test plants); conditions: post-emergence method; for herbicidal effect against AVEFA (Avena fatua): 80 g/ha
Description: (§1) Seeds of monocotylidonous and dicotylidonous weed and crop plants are placed in sandy loam in wood fibre pots, covered with soil and cultivated in a greenhouse under good growth conditions. Two to three weeks after sowing, the test plants are treated at the one-leaf stage. The test compounds, formulated as wettable powders (WP), are then with a water application rate of 600 l/ha (converted), with 0.2% of wetting agent added, sprayed onto the green parts of the plants in different amounts. After the test plants have been kept in the greenhouse under optimum growth conditions for about three weeks, the effect of the preparations is assessed visually in comparison to untreated controls (herbicidal effect in percent: 100% effect=the plants have died, 0% effect=like control plants).

[2] = test system: Echinocloa crus-galli; assay: Herbicidal post-emergence action; conditions: post-emergence method; for herbicidal effect against ECHCG (Echinochloa crus-galli): 80 g/ha
Description: as §1

[3] = test system: Alopecurus myosuroides; assay: Herbicidal post-emergence action; conditions: post-emergence method; for herbicidal effect against ALOMY (Alopecurus myosuroides): 80 g/ha
Description: as §1

[4] = test system: Setaria viridis; assay: Herbicidal post-emergence action; conditions: post-emergence method; for herbicidal effect against SETVI (Setaria viridis): 80 g/ha
Description: as §1

[5] = test system: Lolium multiflorum; assay: Herbicidal post-emergence action; conditions: post-emergence method; for herbicidal effect against LOLMU (Lolium multiflorum): 80 g/ha
Description: as §1

SMILES	herbicidal effect against AVEFA (Avena fatua) [1] [%]	herbicidal effect against ECHCG (Echinochloa crus-galli) [2] [%]	herbicidal effect against ALOMY (Alopecurus myosuroides) [3] [%]	herbicidal effect against SETVI (Setaria viridis) [4] [%]	herbicidal effect against LOLMU (Lolium multiflorum) [5] [%]	pest or weed control at 80 g/ha ([1]; 504 h, Avena fatua, read-out: herbicidal effect against AVEFA (Avena fatua)) [%]	pest or weed control at 80 g/ha ([2]; Echinochloa crus-galli, 504 h, read-out: herbicidal effect against ECHCG (Echinochloa crus-galli)) [%]	pest or weed control at 80 g/ha ([3]; Alopecurus myosuroides, 504 h, read-out: herbicidal effect against ALOMY (Alopecurus myosuroides)) [%]	pest or weed control at 80 g/ha ([4]; Setaria viridis, 504 h, read-out: herbicidal effect against SETVI (Setaria viridis)) [%]	pest or weed control at 80 g/ha ([5]; Lolium multiflorum, 504 h, read-out: herbicidal effect against LOLMU (Lolium multiflorum)) [%]
CCOC(=O)OC1=C(c2c(C)cc(C)cc2C)C(=O)C2CC3(CC12)OCC(C)CO3 (mixture of isomers) [I-c-48]	20	90	20	80	100					
CCc1cc(C)cc(CC)c1C1C(=O)[C@H]2C/C(=N\OC)C[C@H]2C1=O (stereo partly shown) [I-a-18]						60	100	90	90	100
C#CCON=C1C[C@@H]2C(O)=C(c3c(CC)cc(C)cc3CC)C(=O)[C@@H]2C1 (relative stereo) [I-a-33]	0	100	100	90	100					
Cc1cc(C)c(C2=C(OC(=O)C(C)(C)C)C3CC(=O)CC3C2=O)c(C)c1 (stereo not shown) [I-b-60]	0	100	0	80	0					
CON=C1CC2C(=O)C(c3c(C)cc(C)cc3C)=C(O)C2C1 (stereo not shown) [I-a-44]	0	100	20	80	20					
C#CCON=C1CC2C(=O)C(c3c(C)cc(C)cc3C)=C(OC(=O)OCC)C2C1 (racemic) [I-c-60]	0	100	20	0	80					
CCOC(=O)OC1=C(c2c(CC)cc(C)cc2CC)C(=O)C2CC(=NOC(C)(C)C)CC12 (stereo not shown) [I-c-38]	0	80	70	30	90					
CCc1cc(C)cc(C)c1C1=C(O)C2CC(=O)CC2C1=O (stereo not shown) [I-a-56]	0	100	0	100	0					
Cc1cc(C)c(C2=C(OC(=O)CC(C)C)C3CC4(COC(C)(C)O4)CC3C2=O)c(C)c1 (mixture of isomers) [I-b-44]	80	80	80	60	100					
Cc1cc(C)c(C2=C(OC(=O)C(C)C)C3CC(=O)CC3C2=O)c(C)c1 (stereo not shown) [I-b-54]	0	100	20	100	0					
Cc1cc(C)c(C2=C([O-])C3CC4(CC3C2=O)OCCCCO4)c(C)c1.[Na+] (stereo not shown) [I-f-10]	80	90	100	90	100					
CCc1cc(C)cc(CC)c1C1=C(O)[C@H]2CC3(C[C@H]2C1=O)SCCCS3 (relative stereo) [I-a-17]	40	90	30	80	90					
CCc1cc(C)cc(CC)c1C1=C(OC(=O)COC)C2CC3(CC2C1=O)SCCCS3 (stereo not shown) [I-b-10]	20	90	90	70	70					
CCc1cc(C)cc(CC)c1C1=C(OC(=O)OC)C2CC3(CC2C1=O)SCCCS3 (stereo not shown) [I-c-20]	90	100	90	100	100					
